The assay deals with human PDE2A1 (Homo sapiens (Human), UniProt O00408). The assay can be described thus: PDE selectivity IMAP FP assay, human PDE2A1. Format: biochemical. The settings on record: Human PDE2; Lab B; read-out: Human PDE2 Ki (nM) Lab B. The gist of the method:
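Compound titrations run against PDE2 in Tris HCl pH 7.2 buffer with MgCl2 and DTT for 60 min at room temperature, using 50 nM FAM-cAMP plus 1000 nM cGMP and enzyme giving 20% conversion.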

human PDE2A1, sequence (O00408 other isoform, or with tags, fused parts or gaps): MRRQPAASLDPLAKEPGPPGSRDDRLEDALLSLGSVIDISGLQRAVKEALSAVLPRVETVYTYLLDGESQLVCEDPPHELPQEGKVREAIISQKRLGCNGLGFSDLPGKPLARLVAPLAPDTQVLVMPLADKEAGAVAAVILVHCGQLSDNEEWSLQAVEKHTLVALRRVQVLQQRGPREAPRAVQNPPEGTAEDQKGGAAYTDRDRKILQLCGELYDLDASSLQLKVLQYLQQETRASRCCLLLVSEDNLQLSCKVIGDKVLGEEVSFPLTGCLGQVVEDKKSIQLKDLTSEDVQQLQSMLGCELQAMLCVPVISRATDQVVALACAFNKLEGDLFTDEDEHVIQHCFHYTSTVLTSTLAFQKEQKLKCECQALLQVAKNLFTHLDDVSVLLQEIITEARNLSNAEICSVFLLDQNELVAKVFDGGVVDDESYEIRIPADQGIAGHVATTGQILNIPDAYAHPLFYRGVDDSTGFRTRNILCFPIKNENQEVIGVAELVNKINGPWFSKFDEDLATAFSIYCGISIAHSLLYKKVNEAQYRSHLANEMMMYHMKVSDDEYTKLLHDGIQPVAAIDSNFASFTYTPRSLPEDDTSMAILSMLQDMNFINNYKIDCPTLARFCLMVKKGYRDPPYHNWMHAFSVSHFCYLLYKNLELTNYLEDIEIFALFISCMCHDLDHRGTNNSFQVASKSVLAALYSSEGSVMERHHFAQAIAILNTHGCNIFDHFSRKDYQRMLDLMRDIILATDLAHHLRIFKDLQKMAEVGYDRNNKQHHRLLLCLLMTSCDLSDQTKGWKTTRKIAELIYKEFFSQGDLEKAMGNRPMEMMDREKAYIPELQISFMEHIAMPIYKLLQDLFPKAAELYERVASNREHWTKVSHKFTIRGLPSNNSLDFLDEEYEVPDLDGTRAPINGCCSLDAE

With `CC(c1ccc(OC(F)F)c(Cl)c1)n1nc(C(F)(F)F)c2c(=O)[nH]c(O)nc21` (single isomer, unassigned) [Example 326, (S)- or (R)-1-(1-(3-Chloro-4-(difluoromethoxy)phenyl)ethyl)-6-hydroxy-3-(trifluoromethyl)-1H-pyrazolo[3,4-d]pyrimidin-4(5H)-one], the Ki was found to be 16 nM.
Turning to `CC(c1ccc(C(F)(F)F)c(Cl)c1)n1nc(C(F)(F)F)c2c(=O)[nH]c(O)nc21` (single isomer, unassigned) [Example 327, (R)- or (S)-1-(1-(3-Chloro-4-(trifluoromethyl)phenyl)ethyl)-6-hydroxy-3-(trifluoromethyl)-1H-pyrazolo[3,4-d]pyrimidin-4(5H)-one], the Ki was found to be 382 nM.
The same measure for `CC(c1ccc(C(F)(F)F)c(Cl)c1)n1nc(C(F)(F)F)c2c(=O)[nH]c(O)nc21` (single isomer, unassigned) [Example 328, (S)- or (R)-1-(1-(3-Chloro-4-(trifluoromethyl)phenyl)ethyl)-6-hydroxy-3-(trifluoromethyl)-1H-pyrazolo[3,4-d]pyrimidin-4(5H)-one]: 3 nM; for `CCC(c1ccc(C(F)(F)F)cc1)n1nc(C(F)(F)F)c2c(=O)[nH]c(O)nc21` (single isomer, unassigned) [Example 331, (R)- or (S)-6-Hydroxy-3-(trifluoromethyl)-1-(1-(4-(trifluoromethyl)phenyl)propyl)-1H-pyrazolo[3,4-d]pyrimidin-4(5H)-one]: 346 nM; for `CCC(c1ccc(C(F)(F)F)cc1)n1nc(C(F)(F)F)c2c(=O)[nH]c(O)nc21` (single isomer, unassigned) [Example 332, (S)- or (R)-6-hydroxy-3-(trifluoromethyl)-1-(1-(4-(trifluoromethyl)phenyl)propyl)-1H-pyrazolo[3,4-d]pyrimidin-4(5H)-one]: 3.3 nM.
Regarding `CC(C)C(c1ccc(C(F)(F)F)cc1)n1nc(C(F)(F)F)c2c(=O)[nH]c(O)nc21` (single isomer, unassigned) [Example 333, (R)- or (S)-6-Hydroxy-1-(2-methyl-1-(4-(trifluoromethyl)phenyl)propyl)-3-(trifluoromethyl)-1H-pyrazolo[3,4-d]pyrimidin-4(5H)-one], the inhibition constant (Ki) is 134 nM.
Then `CC(C)C(c1ccc(C(F)(F)F)cc1)n1nc(C(F)(F)F)c2c(=O)[nH]c(O)nc21` (single isomer, unassigned) [Example 334, (S)- or (R)-6-Hydroxy-1-(2-methyl-1-(4-(trifluoromethyl)phenyl)propyl)-3-(trifluoromethyl)-1H-pyrazolo[3,4-d]pyrimidin-4(5H)-one], with 2.3 nM.
Then `O=c1[nH]c(O)nc2c1c(C(F)(F)F)nn2C(c1ccc(C(F)(F)F)cc1)C1CC1` (single isomer, unassigned) [Example 335, (R)- or (S)-1-(Cyclopropyl(4-(trifluoromethyl)phenyl)methyl)-6-hydroxy-3-(trifluoromethyl)-1H-pyrazolo[3,4-d]pyrimidin-4(5H)-one], with 137 nM.
Turning to `O=c1[nH]c(O)nc2c1c(C(F)(F)F)nn2C(c1ccc(C(F)(F)F)cc1)C1CC1` (single isomer, unassigned) [Example 336, (S)- or (R)-1-(Cyclopropyl(4-(trifluoromethyl)phenyl)methyl)-6-hydroxy-3-(trifluoromethyl)-1H-pyrazolo[3,4-d]pyrimidin-4(5H)-one], the Ki stood at 3.2 nM.
On to `CC(C)(C)C(c1ccc(C(F)(F)F)cc1)n1nc(C(F)(F)F)c2c(=O)[nH]c(O)nc21` (single isomer, unassigned) [Example 337, (R)- or (S)-1-(2,2-Dimethyl-1-(4-(trifluoromethyl)phenyl)propyl)-6-hydroxy-3-(trifluoromethyl)-1H-pyrazolo[3,4-d]pyrimidin-4(5H)-one], for which the Ki turned out to be 2360 nM.
Then `CC(C)(C)C(c1ccc(C(F)(F)F)cc1)n1nc(C(F)(F)F)c2c(=O)[nH]c(O)nc21` (single isomer, unassigned) [Example 338, (S)- or (R)-1-(2,2-Dimethyl-1-(4-(trifluoromethyl)phenyl)propyl)-6-hydroxy-3-(trifluoromethyl)-1H-pyrazolo[3,4-d]pyrimidin-4(5H)-one], with 373 nM; and `CCC(c1ccc(OC(F)F)c(F)c1)n1nc(CF)c2c(=O)[nH]c(N(C)C)nc21` (single isomer, unassigned) [Example 340, (R)- or (S)-1-(1-(4-(Difluoromethoxy)-3-fluorophenyl)propyl)-6-(dimethylamino)-3-(fluoromethyl)-1H-pyrazolo[3,4-d]pyrimidin-4(5H)-one], with 0.58 nM; and `CCC(c1ccc(OC(F)F)c(F)c1)n1nc(CF)c2c(=O)[nH]c(N(C)C)nc21` (single isomer, unassigned) [Example 341, (S)- or (R)-1-(1-(4-(Difluoromethoxy)-3-fluorophenyl)propyl)-6-(dimethylamino)-3-(fluoromethyl)-1H-pyrazolo[3,4-d]pyrimidin-4(5H)-one], with 0.15 nM.
The same measure for `CCC(c1ccc(OC(F)F)cc1F)n1nc(CF)c2c(=O)[nH]c(N(C)C)nc21` (single isomer, unassigned) [Example 342, (R)- or (S)-1-(1-(4-(Difluoromethoxy)-2-fluorophenyl)propyl)-6-(dimethylamino)-3-(fluoromethyl)-1H-pyrazolo[3,4-d]pyrimidin-4(5H)-one]: 0.1 nM; for `CCC(c1ccc(OC(F)F)cc1F)n1nc(CF)c2c(=O)[nH]c(N(C)C)nc21` (single isomer, unassigned) [Example 343, (S)- or (R)-1-(1-(4-(Difluoromethoxy)-2-fluorophenyl)propyl)-6-(dimethylamino)-3-(fluoromethyl)-1H-pyrazolo[3,4-d]pyrimidin-4(5H)-one]: 1.7 nM.
Then `CCC(c1ccc(C(F)F)c(F)c1)n1nc(CF)c2c(=O)[nH]c(N(C)C)nc21` (single isomer, unassigned) [Example 344, (R)- or (S)-1-(1-(4-(Difluoromethyl)-3-fluorophenyl)propyl)-6-(dimethylamino)-3-(fluoromethyl)-1H-pyrazolo[3,4-d]pyrimidin-4(5H)-one], with 6.3 nM; and `CCC(c1ccc(C(F)F)c(F)c1)n1nc(CF)c2c(=O)[nH]c(N(C)C)nc21` (single isomer, unassigned) [Example 345, (S)- or (R)-1-(1-(4-(Difluoromethyl)-3-fluorophenyl)propyl)-6-(dimethylamino)-3-(fluoromethyl)-1H-pyrazolo[3,4-d]pyrimidin-4(5H)-one], with 0.13 nM; and `CCC(c1ccc(C(F)F)cc1)n1nc(CF)c2c(=O)[nH]c(N(C)C)nc21` (single isomer, unassigned) [Example 346, (R)- or (S)-1-(1-(4-(Difluoromethyl)phenyl)propyl)-6-(dimethylamino)-3-(fluoromethyl)-1H-pyrazolo[3,4-d]pyrimidin-4(5H)-one], with 6.5 nM.
Regarding `CCC(c1ccc(C(F)F)cc1)n1nc(CF)c2c(=O)[nH]c(N(C)C)nc21` (single isomer, unassigned) [Example 347, (S)- or (R)-1-(1-(4-(Difluoromethyl)phenyl)propyl)-6-(dimethylamino)-3-(fluoromethyl)-1H-pyrazolo[3,4-d]pyrimidin-4(5H)-one], the Ki worked out at 0.08 nM.
The same measure for `CCC(c1ccc(C(F)F)cc1F)n1nc(CF)c2c(=O)[nH]c(N(C)C)nc21` (single isomer, unassigned) [Example 348, (R)- or (S)-1-(1-(4-(difluoromethyl)-2-fluorophenyl)propyl)-6-(dimethylamino)-3-(fluoromethyl)-1H-pyrazolo[3,4-d]pyrimidin-4(5H)-one]: 0.03 nM; for `CCC(c1ccc(C(F)F)cc1F)n1nc(CF)c2c(=O)[nH]c(N(C)C)nc21` (single isomer, unassigned) [Example 349, (S)- or (R)-1-(1-(4-(difluoromethyl)-2-fluorophenyl)propyl)-6-(dimethylamino)-3-(fluoromethyl)-1H-pyrazolo[3,4-d]pyrimidin-4(5H)-one]: 4 nM; for `CN(C)c1nc2c(c(CO)nn2C(c2ccc(C(C)(F)F)c(F)c2)C2CC2)c(=O)[nH]1` (single isomer, unassigned) [Example 350, (R)- or (S)-1-(Cyclopropyl(4-(1,1-difluoroethyl)-3-fluorophenyl)methyl)-6-(dimethylamino)-3-(hydroxymethyl)-1H-pyrazolo[3,4-d]pyrimidin-4(5H)-one]: 0.14 nM.
With `CN(C)c1nc2c(c(CO)nn2C(c2ccc(C(C)(F)F)c(F)c2)C2CC2)c(=O)[nH]1` (single isomer, unassigned) [Example 351, (S)- or (R)-1-(Cyclopropyl(4-(1,1-difluoroethyl)-3-fluorophenyl)methyl)-6-(dimethylamino)-3-(hydroxymethyl)-1H-pyrazolo[3,4-d]pyrimidin-4(5H)-one], the Ki came to 0.02 nM.
In the case of `CN(C)c1nc2c(c(CO)nn2C(c2ccc(C(C)(F)F)cc2F)C2CC2)c(=O)[nH]1` (single isomer, unassigned) [Example 352, (R)- or (S)-1-(Cyclopropyl(4-(1,1-difluoroethyl)-2-fluorophenyl)methyl)-6-(dimethylamino)-3-(hydroxymethyl)-1H-pyrazolo[3,4-d]pyrimidin-4(5H)-one], the Ki was 1.2 nM.
Turning to `CN(C)c1nc2c(c(CO)nn2C(c2ccc(C(C)(F)F)cc2F)C2CC2)c(=O)[nH]1` (single isomer, unassigned) [Example 353, (S)- or (R)-1-(Cyclopropyl(4-(1,1-difluoroethyl)-2-fluorophenyl)methyl)-6-(dimethylamino)-3-(hydroxymethyl)-1H-pyrazolo[3,4-d]pyrimidin-4(5H)-one], the Ki was determined as 0.05 nM.
`CC(C)C(c1ccc(C(C)(F)F)cc1)n1nc(CO)c2c(=O)[nH]c(N)nc21` (single isomer, unassigned) [Example 356]: the Ki amounted to 0.68 nM.
As for `CC(C)C(c1ccc(C(C)(F)F)cc1)n1nc(CO)c2c(=O)[nH]c(N)nc21` (single isomer, unassigned) [Example 357], the Ki is 19 nM.

Usually Ki stands for a dissociation constant, usually derived from enzyme kinetics or from competition with a known ligand.

Values taken from patent publication US10174037B2, “Dihydropyrazolopyrimidinone compounds as PDE2 inhibitors” (Merck Sharp & Dohme Corp., priority 2015, dated 2019).
